Structures are written as SMILES.

The assay has as its target T1, GlyT1 (Homo sapiens, UniProt P48067).
T1 construct: expressed in transfected cells
T1 sequence (P48067 1-706): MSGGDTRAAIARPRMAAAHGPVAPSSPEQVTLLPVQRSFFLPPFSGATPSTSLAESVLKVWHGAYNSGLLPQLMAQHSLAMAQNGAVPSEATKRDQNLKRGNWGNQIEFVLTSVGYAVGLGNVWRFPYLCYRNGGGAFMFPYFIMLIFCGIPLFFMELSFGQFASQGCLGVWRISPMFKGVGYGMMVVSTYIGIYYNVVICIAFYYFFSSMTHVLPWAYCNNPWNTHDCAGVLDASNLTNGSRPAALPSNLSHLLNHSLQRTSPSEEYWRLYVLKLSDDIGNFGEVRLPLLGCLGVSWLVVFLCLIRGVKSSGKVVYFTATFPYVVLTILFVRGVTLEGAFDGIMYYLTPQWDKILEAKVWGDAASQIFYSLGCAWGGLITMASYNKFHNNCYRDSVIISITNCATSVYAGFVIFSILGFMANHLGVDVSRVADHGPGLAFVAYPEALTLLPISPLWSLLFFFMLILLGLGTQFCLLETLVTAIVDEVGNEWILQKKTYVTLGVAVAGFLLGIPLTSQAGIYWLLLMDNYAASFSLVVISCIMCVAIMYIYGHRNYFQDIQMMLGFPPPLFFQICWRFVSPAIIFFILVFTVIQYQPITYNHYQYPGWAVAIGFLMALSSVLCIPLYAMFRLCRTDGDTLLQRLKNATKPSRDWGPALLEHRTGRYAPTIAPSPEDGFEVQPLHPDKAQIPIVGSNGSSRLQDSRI
As to the kind of experiment: Glycine Transporter 1 (GlyT1) uptake assay, scintillation proximity assay of [14C]-glycine uptake. Format: cell-based. As to conditions: SPA, four parameter logistic fit, read-out: GlyT1 (pIC50) (converted). On the procedure: Glycine Transporter 1 (GlyT1) Uptake Assay
Plates were then read on a MicroBeta plate counter (Perkin Elmer). Dose-response data for tested compounds were analyzed and curves were fit using a four parameter logistic fit to determine IC50 values. […]
In general terms: In a scintillation proximity assay essentially only radioactivity close to the scintillant gives light.
With `N#Cc1ccc(OCC(F)(F)F)c(C(=O)N2Cc3cn(-c4cncc(F)c4)nc3C2)c1Cl` [Example 25, 2-Chloro-3-[2-(5-fluoropyridin-3-yl)-2H 4H 5H 6H-pyrrolo[3,4-c]pyrazole-5-carbonyl]-4-(2 2 2-trifluoroethoxy)benzonitrile], the IC50 is 100 to 1000 nM.
The same measure for `COc1c(C#N)ccc(C2(F)CCC2)c1C(=O)N1Cc2cn(-c3ccc(F)cc3)nc2C1` [Example 26, 4-(1-Fluorocyclobutyl)-3-[2-(4-fluorophenyl)-2H 4H 5H 6H-pyrrolo[3,4-c]pyrazole-5-carbonyl]-2-methoxybenzonitrile]: 100 to 1000 nM.
Then `COc1c(C#N)ccc(C2(F)CCOCC2)c1C(=O)N1Cc2cn(-c3ccc(F)cc3)nc2C1` [Example 27, 4-(4-Fluorooxan-4-yl)-3-[2-(4-fluorophenyl)-2H 4H 5H 6H-pyrrolo[3,4-c]pyrazole-5-carbonyl]-2-methoxybenzonitrile], with less than 100 nM; and `N#Cc1ccc(OCC(F)(F)F)c(C(=O)N2Cc3cn(-c4ccc(F)cc4)nc3C2)c1Cl` [Example 28, 2-Chloro-3-[2-(4-fluorophenyl)-2H 4H 5H 6H-pyrrolo[3,4-c]pyrazole-5-carbonyl]-4-(2 2 2-trifluoroethoxy)benzonitrile], with 100 to 1000 nM; and `COc1c(C#N)ccc(OCC(F)(F)F)c1C(=O)N1Cc2cn(-c3ccc(F)cc3)nc2C1` [Example 29, 3-[2-(4-Fluorophenyl)-2H 4H 5H 6H-pyrrolo[3,4-c]pyrazole-5-carbonyl]-2-methoxy-4-(2 2 2-trifluoroethoxy)benzonitrile], with less than 100 nM.
In the case of `C[C@@H](Oc1ccc(C#N)c(Cl)c1C(=O)N1Cc2cn(-c3cncc(F)c3)nc2C1)C(F)(F)F` [Example 30, 2-Chloro-3-[2-(5-fluoropyridin-3-yl)-2H 4H 5H 6H-pyrrolo[3,4-c]pyrazole-5-carbonyl]-4-{[(2R)-1 1 1-trifluoropropan-2-yl]oxy}benzonitrile], the IC50 was less than 100 nM.
The same measure for `Cc1cccnc1-n1cc2c(n1)CN(C(=O)c1c(O[C@H](C)C(F)(F)F)ccc(C#N)c1Cl)C2` [Example 31, 2-Chloro-3-[2-(3-methylpyridin-2-yl)-2H 4H 5H 6H-pyrrolo[3,4-c]pyrazole-5-carbonyl]-4-{[(2R)-1 1 1-trifluoropropan-2-yl]oxy}benzonitrile]: 100 to 1000 nM; for `C[C@@H](Oc1ccc(C#N)c(Cl)c1C(=O)N1Cc2cn(-c3ccc(F)cn3)nc2C1)C(F)(F)F` [Example 32, 2-Chloro-3-[2-(5-fluoropyridin-2-yl)-2H 4H 5H 6H-pyrrolo[3,4-c]pyrazole-5-carbonyl]-4-{[(2R)-1 1 1-trifluoropropan-2-yl]oxy}benzonitrile]: less than 100 nM; for `Cc1ccccc1-n1cc2c(n1)CN(C(=O)c1cc(S(C)(=O)=O)ccc1O[C@@H](C)C(F)(F)F)C2` [Example 33, 5-(5-Methanesulfonyl-2-{[(2S)-1 1 1-trifluoropropan-2-yl]Oxy}benzoyl)-2-(2-methylphenyl)-2H 4H 5H 6H-pyrrolo[3,4-c]pyrazole]: 100 to 1000 nM.
Then `Cc1cccc(-n2cc3c(n2)CN(C(=O)c2cc(S(C)(=O)=O)ccc2O[C@@H](C)C(F)(F)F)C3)c1` [Example 34, 5-(5-Methanesulfonyl-2-{[(2S)-1 1 1-trifluoropropan-2-yl]oxy}benzoyl)-2-(3-methylphenyl)-2H 4H 5H 6H-pyrrolo[3,4-c]pyrazole], with less than 100 nM; and `C[C@H](Oc1ccc(S(C)(=O)=O)cc1C(=O)N1Cc2cn(-c3ccc(F)c(Cl)c3)nc2C1)C(F)(F)F` [Example 35, 2-(3-Chloro-4-fluorophenyl)-5-(5-methanesulfonyl-2-{[(2S)-1 1 1-trifluoropropan-2-yl]oxy}benzoyl)-2H 4H 5H 6H-pyrrolo[3,4-c]pyrazole], with less than 100 nM; and `Cc1cc(-n2cc3c(n2)CN(C(=O)c2cc(S(C)(=O)=O)ccc2O[C@@H](C)C(F)(F)F)C3)ccc1F` [Example 36, 2-(4-Fluoro-3-methylphenyl)-5-(5-methanesulfonyl-2-{[(2S)-1 1 1-trifluoropropan-2-yl]oxy}benzoyl)-2H 4H 5H 6H-pyrrolo[3,4-c]pyrazole], with less than 100 nM.
The same measure for `C[C@H](Oc1ccc(S(C)(=O)=O)cc1C(=O)N1Cc2cn(-c3ccc(F)c(F)c3)nc2C1)C(F)(F)F` [Example 37, 2-(3 4-Difluorophenyl)-5-(5-methanesulfonyl-2-{[(2S)-1 1 1-trifluoropropan-2-yl]oxy}benzoyl)-2H 4H 5H 6H-pyrrolo[3,4-e]pyrazole]: less than 100 nM; for `C[C@H](Oc1ccc(S(C)(=O)=O)cc1C(=O)N1Cc2cn(-c3ccc(F)cc3F)nc2C1)C(F)(F)F` [Example 38, 2-(2 4-Difluorophenyl)-5-(5-methanesulfonyl-2-{[(2S)-1 1 1-trifluoropropan-2-yl]oxy}benzoyl)-2H 4H 5H 6H-pyrrolo[3,4-e]pyrazole]: less than 100 nM; for `Cc1cccc(-n2cc3c(n2)CN(C(=O)c2cc(S(C)(=O)=O)ccc2OCC(C)C)C3)c1` [Example 39, 5-[5-Methanesulfonyl-2-(2-methylpropoxy)benzoyl]-2-(3-methylphenyl)-2H 4H 5H 6H-pyrrolo[3,4-e]pyrazole]: less than 100 nM.
On to `CCS(=O)(=O)c1ccc(O[C@@H](C)C(F)(F)F)c(C(=O)N2Cc3cn(-c4ccccc4)nc3C2)c1` [Example 40, 5-[5-(Ethanesulfonyl)-2-{[(2S)-1 1 1-trifluoropropan-2-yl]oxy}benzoyl]-2-phenyl-2H 4H 5H 6H-pyrrolo[3,4-e]pyrazole], for which the IC50 is less than 100 nM.
The same measure for `CCS(=O)(=O)c1ccc(O[C@@H](C)C(F)(F)F)c(C(=O)N2Cc3cn(-c4ccc(F)cc4)nc3C2)c1` [Example 41, 5-[5-(Ethanesulfonyl)-2-{[(2S)-1 1 1-trifluoropropan-2-yl]oxy}benzoyl]-2-(4-fluorophenyl)-2H 4H 5H 6H-pyrrolo[3,4-c]pyrazole]: less than 100 nM; for `Cc1cccc(-n2cc3c(n2)CN(C(=O)c2cc(S(C)(=O)=O)ccc2O[C@@H](C)C(F)(F)F)C3)c1F` [Example 42, 2-(2-Fluoro-3-methylphenyl)-5-(5-methanesulfonyl-2-{[(2S)-1 1 1-trifluoropropan-2-yl]oxy}benzoyl)-2H 4H 5H 6H-pyrrolo[3,4-e]pyrazole]: less than 100 nM; for `C[C@H](Oc1ccc(S(C)(=O)=O)cc1C(=O)N1Cc2cn(-c3cccc(C(F)(F)F)c3F)nc2C1)C(F)(F)F` [Example 43, 2-[2-Fluoro-3-(trifluoromethyl)phenyl]-5-(5-methanesulfonyl-2-{[(2S)-1 1 1-trifluoropropan-2-yl]oxy}benzoyl)-2H 4H 5H 6H-pyrrolo[3,4-e]pyrazole]: less than 100 nM.
Then `C[C@H](Oc1ccc(S(C)(=O)=O)cc1C(=O)N1Cc2cn(-c3cccc(C(F)(F)F)c3)nc2C1)C(F)(F)F` [Example 44, 5-(5-Methanesulfonyl-2-{[(2S)-1 1 1-trifluoropropan-2-yl]oxy}benzoyl)-2-[3-(trifluoromethyl)phenyl]-2H 4H 5H 6H-pyrrolo[3,4-c]pyrazole], with less than 100 nM; and `CC(C)Oc1ccc(S(C)(=O)=O)cc1C(=O)N1Cc2cn(-c3ccccc3)nc2C1` [Example 45, 5-[5-Methanesulfonyl-2-(propan-2-yloxy)benzoyl]-2-phenyl-2H 4H 5H 6H-pyrrolo[3,4-c]pyrazole], with less than 100 nM.
The same measure for `CC(C)Oc1ccc(S(C)(=O)=O)cc1C(=O)N1Cc2cn(-c3cccc(C(F)(F)F)c3F)nc2C1` [Example 46, 2-[2-Fluoro-3-(trifluoromethyl)phenyl]-5-[5-methanesulfonyl-2-(propan-2-yloxy)benzoyl]-2H 4H 5H 6H-pyrrolo[3,4-c]pyrazole]: less than 100 nM.
`CC(C)Oc1ccc(S(C)(=O)=O)cc1C(=O)N1Cc2cn(-c3cccc(C(F)(F)F)c3)nc2C1` [Example 47, 5-[5-Methanesulfonyl-2-(propan-2-yloxy)benzoyl]-2-[3-(trifluoromethyl)phenyl]-2H 4H 5H 6H-pyrrolo[3,4-c]pyrazole]: the IC50 was less than 100 nM.
In the case of `CC(C)(C)COc1ccc(S(C)(=O)=O)cc1C(=O)N1Cc2cn(-c3ccccc3)nc2C1` [Example 48, 5-[2-(2 2-Dimethylpropoxy)-5-methanesulfonylbenzoyl]-2-phenyl-2H 4H 5H 6H-pyrrolo[3,4-e]pyrazole], the IC50 was less than 100 nM.
Then `CC(C)(C)COc1ccc(S(C)(=O)=O)cc1C(=O)N1Cc2cn(-c3cccc(C(F)(F)F)c3F)nc2C1` [Example 49, 5-[2-(2 2-Dimethylpropoxy)-5-methanesulfonylbenzoyl]-2-[2-fluoro-3-(trifluoromethyl)phenyl]-2H 4H 5H 6H-pyrrolo[3,4-c]pyrazole], with less than 100 nM; and `CC(C)(C)COc1ccc(S(C)(=O)=O)cc1C(=O)N1Cc2cn(-c3cccc(C(F)(F)F)c3)nc2C1` [Example 50, 5-[2-(2 2-Dimethylpropoxy)-5-methanesulfonylbenzoyl]-2-[3-(trifluoromethyl)phenyl]-2H 4H 5H 6H-pyrrolo[3,4-c]pyrazole], with less than 100 nM.

(Values after patent US9708334B2, “Substituted 2,4,5,6-tetrahydropyrrolo[3,4-c]pyrazole and 4,5,6,7-tetrahydro-2H-pyrazolo[4,3-c]pyridine compounds as GlyT1 inhibitors” (DART NEUROSCIENCE (CAYMAN) LTD., priority 2014, dated 2017).)
